Laboratory results reported in patent publication US20080261994A1, “CYCLOPROPANE COMPOUNDS AND PHARMACEUTICAL USE THEREOF” (Japan Tobacco Inc., priority 2003, published 2008).
Read-outs that look alike come from different tables or passages of the source.

Experiments:
Type in all cases: biochemical
MMP-1 = biological target: T1, MMP-1 (Homo sapiens, UniProt P03956); assay: MMP-1 inhibitory action (Type I collagen Activity Measurement kit, FITC-labeled collagen type I)
T1 sequence (P03956 100-469): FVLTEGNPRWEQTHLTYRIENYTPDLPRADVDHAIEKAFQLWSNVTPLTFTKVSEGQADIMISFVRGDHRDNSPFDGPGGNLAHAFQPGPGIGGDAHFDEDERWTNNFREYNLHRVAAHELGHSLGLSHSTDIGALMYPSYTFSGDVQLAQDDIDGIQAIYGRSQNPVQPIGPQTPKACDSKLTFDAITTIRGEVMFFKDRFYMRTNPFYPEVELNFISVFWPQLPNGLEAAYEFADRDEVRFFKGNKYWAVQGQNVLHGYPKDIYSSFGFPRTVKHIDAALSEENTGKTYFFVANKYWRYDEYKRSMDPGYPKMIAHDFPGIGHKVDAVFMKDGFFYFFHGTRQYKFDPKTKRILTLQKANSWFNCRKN

aggrecanase-1 = biological target: T2, aggrecanase-1 (Homo sapiens, UniProt O75173); assay: Aggrecanase-1 inhibitory action (Particle Assay, GAG release from aggrecan-containing polyacrylamide particles)
T2 sequence (O75173 213-837): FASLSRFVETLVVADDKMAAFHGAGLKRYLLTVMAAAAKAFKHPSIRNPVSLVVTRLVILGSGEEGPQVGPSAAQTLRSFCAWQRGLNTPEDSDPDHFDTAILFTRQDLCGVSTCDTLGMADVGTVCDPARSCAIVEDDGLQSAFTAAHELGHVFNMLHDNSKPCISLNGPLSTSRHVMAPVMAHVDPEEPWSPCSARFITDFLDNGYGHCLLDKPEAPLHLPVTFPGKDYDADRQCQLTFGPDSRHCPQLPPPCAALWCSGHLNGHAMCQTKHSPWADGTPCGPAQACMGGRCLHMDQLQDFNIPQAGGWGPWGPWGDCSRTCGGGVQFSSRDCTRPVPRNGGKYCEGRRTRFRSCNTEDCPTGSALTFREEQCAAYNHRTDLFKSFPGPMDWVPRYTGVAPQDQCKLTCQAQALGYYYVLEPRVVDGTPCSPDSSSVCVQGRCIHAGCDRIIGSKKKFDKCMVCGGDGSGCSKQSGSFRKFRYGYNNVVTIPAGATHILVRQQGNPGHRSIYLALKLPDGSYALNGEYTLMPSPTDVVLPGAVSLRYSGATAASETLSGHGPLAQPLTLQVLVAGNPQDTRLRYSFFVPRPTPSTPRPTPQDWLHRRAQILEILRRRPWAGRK
Summary of the method: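 Readout was dimethylmethylene blue absorbance (595 nm) of glycosaminoglycan liberated into supernatant, calibrated with whale chondroitin sulfate. Substrate was aggrecan in polyacrylamide particles, digested 15 h at 37° C in Tris-HCl; TC50 (μM) derived from inhibition relative to no-enzyme and no-inhibitor controls.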

Recombinant Human MMP-13 = biological target: T3, Recombinant Human MMP-13 (Homo sapiens, UniProt P45452); assay: MMP-13 inhibitory activity (MMP-13 specific fluorescent substrate with quencher)
T3 construct: purchased R&D systems 511-MM
Summary of the method: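 IC50 (μM) derived from % inhibition, normalised to wells without enzyme and without inhibitor, fluorescence read at 325/405 nm. Enzyme and compound preceded addition of the quenched 7-MCA…DPA substrate; Tris-HCl buffer, 25 °C for 1 h, acetic-acid stop.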

[1] = MMP-1 inhibitory action, FITC-labeled collagen type I, 37° C. for 3 hr, read-out: IC50 MMP1 (Experimental Example 2)
[2] = aggrecanase-1 inhibitory action, read-out: IC50 AG1 (Experimental Example 1)
[3] = Recombinant Human MMP-13, fluorescent substrate, 25° C. for 1 h, read-out: IC50 MMP13 (Experimental Example 3)
[4] = Experimental Example 2, read-out: IC50 MMP1
[5] = Experimental Example 1, read-out: IC50 AG1
[6] = Experimental Example 3, read-out: IC50 MMP13

IC50 (MMP-1; [1]) [nM]	IC50 (aggrecanase-1; [2]) [nM]	IC50 (Recombinant Human MMP-13; [3]) [nM]	IC50 (MMP-1; [4]) [nM]	IC50 (aggrecanase-1; [5]) [nM]	IC50 (Recombinant Human MMP-13; [6]) [nM]	Structure (SMILES)
≥ 10000	≥ 1000	≥ 1000	–	–	–	CC(C)(C)NCCOc1ccccc1C1CC1(NS(=O)(=O)c1ccc(-c2ccc(Cl)cc2)s1)C(=O)O (stereo not drawn) [Example 2-53]
–	–	–	≥ 1000	≥ 1000	≥ 1000	CC1C(c2ccccc2)C1(NS(=O)(=O)c1ccc(Cc2ccccc2)s1)C(=O)O (stereo not drawn) [Example 2-508]
–	–	–	≥ 1000	< 1000	< 1000	O=C(O)[C@]1(NS(=O)(=O)c2ccc(-c3ccc([N+](=O)[O-])cc3)s2)C[C@@H]1c1ccccc1 [Example 2-388]
≥ 10000	≥ 10000	≥ 10000	–	–	–	CN1CCN(c2ccc(C3CC3(NS(=O)(=O)c3ccc(-c4ccc(Cl)cc4)s3)C(=O)O)cc2)CC1 (stereo not drawn) [Example 2-247]
≥ 10000	< 100	< 100	–	–	–	CS(=O)(=O)Nc1cccc(C2CC2(NS(=O)(=O)c2ccc(-c3ccc(Cl)cc3)cc2)C(=O)O)c1 (stereo not drawn) [Example 1-38]
≥ 10000	≥ 10000	≥ 10000	–	–	–	O=C(O)[C@]1(NS(=O)(=O)c2ccc3c(c2)CN(C2CCCCC2)C3)C[C@@H]1c1ccccc1 [Example 2-166]
–	–	–	≥ 10000	< 1000	< 1000	O=C(O)C1(NS(=O)(=O)c2ccc(-c3ccc(Cl)cc3)s2)CC1(Cn1ccnc1)c1ccccc1 (stereo not drawn) [Example 2-346]
–	–	–	≥ 1000	< 100	< 100	CC(=O)N1CCC2C(c3ccccc31)C2(NS(=O)(=O)c1ccc(-c2ccc(Cl)cc2)s1)C(=O)O (stereo not drawn) [Example 2-439]
≥ 10000	< 1000	< 100	–	–	–	COCc1cccc(C2CC2(NS(=O)(=O)c2ccc(-c3ccc(Cl)cn3)s2)C(=O)O)c1 (stereo not drawn) [Example 2-57]
–	–	–	≥ 10000	≥ 1000	≥ 1000	Cc1cc(N2CCN(S(=O)(=O)N[C@@]3(C(=O)O)C(C)[C@@H]3c3ccccc3)CC2)no1 (stereo partly drawn) [Example 2-475]
–	–	–	< 1000	< 1000	< 100	CC1[C@H](c2ccccc2)[C@]1(NS(=O)(=O)c1ccc(-n2cc(C(C)(C)O)cn2)s1)C(=O)O (stereo partly drawn) [Example 2-523]
–	–	–	≥ 1000	< 1000	< 100	CC1[C@H](c2ccccc2)[C@]1(NS(=O)(=O)N1CCN(c2ccc(Cl)c(F)c2)CC1)C(=O)O (stereo partly drawn) [Example 2-459]
–	–	–	≥ 1000	< 1000	≥ 1000	C[C@]1(c2ccccc2)C[C@@]1(NS(=O)(=O)c1ccc(-c2ccc(Cl)cc2Cl)s1)C(=O)O [Example 2-566]
–	–	–	< 1000	< 1000	< 100	CC1[C@H](c2ccccc2)[C@]1(NS(=O)(=O)c1cn2cc(-c3ccccc3)nc2s1)C(=O)O (stereo partly drawn) [Example 2-499]
–	–	–	≥ 1000	≥ 1000	≥ 1000	CC1[C@H](c2ccccc2)[C@]1(NS(=O)(=O)N1CCC(OCc2cccc(Cl)c2)C1)C(=O)O (stereo partly drawn) [Example 2-549]
–	–	–	≥ 10000	< 1000	< 1000	O=C(NCC1(c2ccccc2)CC1(NS(=O)(=O)c1ccc(-c2ccc(Cl)cc2)s1)C(=O)O)[C@@H]1CCCO1 (stereo partly drawn) [Example 2-385]
–	–	–	≥ 1000	< 100	< 100	C[C@]1(c2ccccc2)C[C@@]1(NS(=O)(=O)c1ccc(-c2ccc3c(c2)OCO3)s1)C(=O)O [Example 2-449]
–	–	–	≥ 10000	< 100	< 100	CC(=O)NCCCC1(c2ccccc2)CC1(NS(=O)(=O)c1ccc(-c2ccc(Cl)cc2)s1)C(=O)O (stereo not drawn) [Example 2-272]
≥ 1000	< 1000	< 1000	–	–	–	O=C(O)C1(NS(=O)(=O)c2ccc(-c3ccc(Cl)cc3)cc2)CC1c1cccc(Oc2ccccc2)c1 (stereo not drawn) [Example 1-10]
< 1000	< 100	< 100	–	–	–	O=C(O)[C@]1(NS(=O)(=O)c2ccc(-c3cc(CF)sn3)s2)C[C@@H]1c1ccccc1 [Example 2-120]

IC50 (MMP-1; [1]) [nM]	IC50 (aggrecanase-1; [2]) [nM]	IC50 (Recombinant Human MMP-13; [3]) [nM]	IC50 (MMP-1; [4]) [nM]	IC50 (aggrecanase-1; [5]) [nM]	IC50 (Recombinant Human MMP-13; [6]) [nM]	Structure (SMILES)
–	–	–	< 1000	< 100	< 100	Cc1cnn(-c2ccc(S(=O)(=O)N[C@@]3(C(=O)O)C(C)[C@@H]3c3ccccc3)s2)c1 (stereo partly drawn) [Example 2-287]
–	–	–	< 1000	< 100	< 100	CC1[C@H](c2ccccc2)[C@]1(NS(=O)(=O)c1ccc(-c2ccc3c(c2)OCO3)s1)C(=O)O (stereo partly drawn) [Example 2-470]
–	–	–	≥ 1000	< 100	< 1000	CSCC1(c2ccccc2)CC1(NS(=O)(=O)c1ccc(-c2ccc(Cl)cc2)s1)C(=O)O (stereo not drawn) [Example 2-432]
≥ 1000	< 100	< 1000	–	–	–	O=C(O)C1(NS(=O)(=O)c2ccc(-c3ccc(Cl)cc3)s2)CC1(CCCO)c1ccccc1 (stereo not drawn) [Example 2-227]
–	–	–	≥ 1000	< 1000	< 1000	CC1C(c2ccccc2)C1(NS(=O)(=O)c1ccc(-c2ccc(Cl)cc2)s1)C(=O)O (stereo not drawn) [Example 2-326]
–	–	–	< 1000	< 1000	< 100	C[C@]1(c2ccccc2)C[C@@]1(NS(=O)(=O)c1ccc(-c2cccc(N)c2)s1)C(=O)O [Example 2-452]
≥ 1000	< 1000	< 100	–	–	–	Cc1ccc(-c2ccc(S(=O)(=O)N[C@@]3(C(=O)O)C[C@@H]3c3ccccc3)s2)s1 [Example 2-39]
≥ 1000	< 1000	< 100	–	–	–	Cc1cnn(-c2ccc(S(=O)(=O)N[C@@]3(C(=O)O)C[C@@H]3c3ccccc3)s2)c1 [Example 2-241]
≥ 1000	< 1000	< 100	–	–	–	COC(=O)Nc1cccc(C2CC2(NS(=O)(=O)c2ccc(-c3ccc(Cl)cc3)cc2)C(=O)O)c1 (stereo not drawn) [Example 1-41]
–	–	–	≥ 10000	≥ 1000	≥ 1000	CC1[C@H](c2ccccc2)[C@]1(NS(=O)(=O)N1CCN(c2nc3ccccc3s2)CC1)C(=O)O (stereo partly drawn) [Example 2-463]
≥ 10000	< 1000	< 1000	–	–	–	CC(C)(C)OC(=O)Nc1ccccc1C1CC1(NS(=O)(=O)c1ccc(-c2ccc(Cl)cc2)s1)C(=O)O (stereo not drawn) [Example 2-217]
≥ 10000	< 1000	< 100	–	–	–	CC(C)(CO)NC(=O)c1cccc(C2CC2(NS(=O)(=O)c2ccc(-c3ccc(Cl)cc3)s2)C(=O)O)c1 (stereo not drawn) [Example 2-74]
–	–	–	≥ 1000	< 1000	< 100	O=C(CSCC1(c2ccccc2)CC1(NS(=O)(=O)c1ccc(-c2ccc(Cl)cc2)s1)C(=O)O)N1CCOCC1 (stereo not drawn) [Example 2-359]
≥ 10000	≥ 10000	≥ 10000	–	–	–	O=C(NCC(F)(F)F)c1ccc(S(=O)(=O)NC2(C(=O)O)CC2c2ccccc2)s1 (stereo not drawn) [Example 2-106]
≥ 10000	< 100	< 1000	–	–	–	Cc1csc(-c2cccc(C3CC3(NS(=O)(=O)c3ccc(-c4ccc(Cl)cc4)s3)C(=O)O)c2)n1 (stereo not drawn) [Example 2-86]
≥ 10000	≥ 1000	≥ 1000	–	–	–	O=C1O[C@@H]([C@H]2C[C@@]2(NS(=O)(=O)c2ccc(-c3ccc(Cl)cc3)s2)C(=O)O)CN1Cc1ccccc1 [Example 2-139]
–	–	–	≥ 1000	< 100	< 100	CN1CCC2C(c3ccccc31)C2(NS(=O)(=O)c1ccc(-c2ccc(Cl)cc2)s1)C(=O)O (stereo not drawn) [Example 2-430]
≥ 10000	< 1000	≥ 1000	–	–	–	C[C@]1(c2ccccc2)C[C@@]1(NS(=O)(=O)c1ccc(-c2cc(C(F)(F)C(F)(F)F)on2)s1)C(=O)O [Example 2-112]
–	–	–	≥ 1000	≥ 1000	≥ 1000	CC1C(c2ccccc2)C1(NS(=O)(=O)c1ccc(CCc2ccccc2)s1)C(=O)O (stereo not drawn) [Example 2-541]
–	–	–	≥ 1000	< 100	< 100	CC1[C@H](c2ccccc2)[C@]1(NS(=O)(=O)N1CC=C(c2ccc(Cl)cc2)CC1)C(=O)O (stereo partly drawn) [Example 2-441]
